Test [1] concerns the target T1, TGW6 (THOUSAND-GRAIN WEIGHT 6), IAA-glucose hydrolase (Oryza sativa, UniProt Q69U01).
T1 construct: gene Os06g0623700; recombinant; N-terminal Trx-(His)6 tag cleaved with thrombin; E. coli Rosetta-gami 2(DE3); purified
T1 sequence (Q69U01 31-350): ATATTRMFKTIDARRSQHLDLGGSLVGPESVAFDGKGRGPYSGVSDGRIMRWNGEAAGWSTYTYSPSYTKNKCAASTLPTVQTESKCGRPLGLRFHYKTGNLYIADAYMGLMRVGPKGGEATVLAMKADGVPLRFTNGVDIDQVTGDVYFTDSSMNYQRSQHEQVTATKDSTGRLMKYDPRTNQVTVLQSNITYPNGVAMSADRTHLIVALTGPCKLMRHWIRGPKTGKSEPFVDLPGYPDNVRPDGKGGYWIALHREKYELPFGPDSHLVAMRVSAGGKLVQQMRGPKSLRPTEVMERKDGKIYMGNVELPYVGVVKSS
Nature of the test: […] NMR fragment screening (CPMG R2 filter). The format is binding. The settings on record: 298 K.

Test [2] deals with T1, TGW6 (THOUSAND-GRAIN WEIGHT 6), IAA-glucose hydrolase. Nature of the test: thermal shift (UNCLE, intrinsic Trp fluorescence BCM). Type of test: binding. The settings on record: 27.6 μM TGW6, 55.0 μM ligand, 2 mM CaCl2, pH 7.0.
[3] abbreviates: 10 μM TGW6, 50 μM fragment in mixture.

With `O=[N+]([O-])c1ccc(OCC2CCCO2)c(F)c1` (stereo not shown) [CK0-00681, 2-[(2-Fluoro-4-nitrophenoxy)methyl]tetrahydrofuran], the “ΔIntensity (%)” value in test [1] (10 μM TGW6, 50 μM fragment in mixture, not competitive with IAA-Glc, different site implied) is reported as “− 100.0”.

For the molecule `O=[N+]([O-])c1c(F)cccc1N1CCC(O)CC1` [CK0-02991, 1-(3-Fluoro-2-nitrophenyl)piperidin-4-ol], the “ΔIntensity (%)” value in test [1] (setting [3]) was “− 57.9”. Same read-out and setting: the value for `O=[N+]([O-])c1ccc(OC2CCOCC2)c(F)c1` [CK0-03011, 4-(2-Fluoro-4-nitrophenoxy)tetrahydro-2H-pyran] was “− 45.4”. With `O=C(O)Cc1c[nH]c2ccccc12` [IAA, indole-3-acetic acid], the Tm shift in test [2] was greater than 3 °C. Still for that read-out and setting: with `C[C@H](NC(=O)Cc1c[nH]c2ccccc12)C(=O)O` [IAA-Ala] the figure was ~ 10 °C. Same read-out and setting: with `O=C(Cc1c[nH]c2ccccc12)O[C@@H]1O[C@H](CO)[C@@H](O)[C@H](O)[C@H]1O` [IAA-Glc, 1-O-indole-3-ylacetyl-β-D-glucose] the figure was ~ 5 °C; with `O=C(O)CCCc1c[nH]c2ccccc12` [IBA, indole 3-butyric acid], greater than 3 °C. Still for that read-out and setting: with `COC(=O)Cc1c[nH]c2ccccc12` [MeIAA, methyl indole 3-acetate] the figure was greater than 3 °C. With `O=C(O)Cc1c[nH]c2cccc(F)c12` [PK0-38501, 2-(4-Fluoro-1H-indol-3-yl)acetic acid], the “ΔIntensity (%)” value in test [1] (setting [3]) is “− 46.5”. For the same molecule, in test [2], the Tm shift was ~ 7 °C. Consider `O=C(O)Cc1c[nH]c2c(F)cccc12` [PK0-38511, 2-(7-Fluoro-1H-indol-3-yl)acetic acid], for which the “ΔIntensity (%)” value in test [1] (10 μM TGW6, 50 μM fragment in mixture, competitive with IAA-Glc) is recorded as “− 50.3”. The Tm shift in test [2] was ~ 9 °C. On to `O=C(O)C(c1c[nH]c2ccc(F)cc12)C(F)(F)F` (stereo not shown) [PK0-42071, 3,3,3-Trifluoro-2-(5-fluoro-1H-indol-3-yl)propanoic acid], for which, in test [1] (10 μM TGW6, CF3-containing fragment at 17.5 μM in mixture), the “ΔIntensity (%)” value is “− 46.0”.
